# Data from ChEMBL document CHEMBL4382234, “Fluoroquinolone-isatin hybrids and their biological activities” (Eur J Med Chem, 2019).
# Key:
# [1] = system: Mycobacterium tuberculosis; assay: Antimycobacterial activity against Mycobacterium tuberculosis H37Rv after 3 to 7 days by rapid direct susceptibility test; format: functional
# [2] = system: Mycobacterium tuberculosis; assay: Potency index, ratio of rifampicin MIC to test compound MIC for Mycobacterium tuberculosis H37Rv; format: functional
# [3] = system: Mycobacterium tuberculosis; assay: Potency index, ratio of isoniazid MIC to test compound MIC for Mycobacterium tuberculosis H37Rv; format: functional
# HeLa = assay: Anticancer activity against human HeLa cells after 48 hrs by MTT assay; format: functional, cell-based
# SW480 = assay: Anticancer activity against human SW480 cells after 48 hrs by MTT assay; format: functional, cell-based; settings: SW480, 48 h
# A549 = assay: Anticancer activity against human A549 cells after 48 hrs by MTT assay; format: functional, cell-based; settings: A549, 48 h
# HepG2 = assay: Anticancer activity against human HepG2 cells after 48 hrs by MTT assay; format: functional, cell-based; settings: HepG2, 48 h
# Vibrio cholerae = assay: Antibacterial activity against Vibrio cholerae by agar dilution method; format: functional
# Escherichia coli [4] = assay: Antibacterial activity against Escherichia coli by agar dilution method; format: functional
# Shigella flexneri = assay: Antibacterial activity against Shigella flexneri by agar dilution method; format: functional
# [5] = system: Staphylococcus epidermidis; assay: Antibacterial activity against Staphylococcus epidermidis by agar dilution method; format: functional
# Salmonella typhi = assay: Antibacterial activity against Salmonella typhi by agar dilution method; format: functional, Salmonella enterica subsp. enterica serovar Typhi; settings: Salmonella enterica
# Staphylococcus aureus = assay: Antibacterial activity against Staphylococcus aureus by agar dilution method; format: functional
# Citrobacter freundii = assay: Antibacterial activity against Citrobacter freundii by agar dilution method; format: functional
# Pseudomonas aeruginosa = assay: Antibacterial activity against Pseudomonas aeruginosa by agar dilution method; format: functional
# Klebsiella pneumoniae = assay: Antibacterial activity against Klebsiella pneumoniae by agar dilution method; format: functional
# [6] = Toxicity in po dosed CF mouse measured after 1 week; format: organism-based; settings: in vivo
# Escherichia coli [7] = assay: Antibacterial activity against Escherichia coli NCTC 10418 infected in po dosed CF mouse measured after 1 week; format: functional; settings: NCTC 10418, po, 168 h
# Escherichia coli [8] = assay: Potency index, ratio of norfloxacin ED50 to test compound ED50 for antibacterial activity against Escherichia coli NCTC 10418 infected in po dosed CF mouse; format: functional
# [9] = system: Mycobacterium tuberculosis; assay: Potency index, ratio of gatifloxacin MIC to test compound MIC for Mycobacterium tuberculosis H37Rv; format: functional
# [10] = system: Human immunodeficiency virus 1; assay: Antiviral activity against HIV1 3B infected in human MT4 cells after 5 days by spectrophotometric method; format: functional, organism-based; settings: Human immunodeficiency virus 1, 3B, MT4, 120 h
# [11] = system: Mycobacterium tuberculosis; assay: Antimycobacterial activity against Mycobacterium tuberculosis H37Rv; format: functional
# [12] = system: Human immunodeficiency virus 1; assay: Antiviral activity against HIV1 3B infected in human MT4 cells; format: functional, organism-based
# [13] = system: Mycobacterium tuberculosis; assay: Antitubercular activity against Mycobacterium tuberculosis H37Rv by microplate alamar blue assay; format: functional
# [14] = system: Mycobacterium tuberculosis; assay: Antitubercular activity against Mycobacterium tuberculosis infected in IFNgamma-deficient C57BL/6 mouse assessed bacterial load in spleen at 25 mg/kg administered once daily for 8 days measured 28 days post infection; format: functional
# [15] = system: Mycobacterium tuberculosis; assay: Antitubercular activity against Mycobacterium tuberculosis infected in IFNgamma-deficient C57BL/6 mouse assessed bacterial load in lung at 25 mg/kg administered once daily for 8 days measured 28 days post infection; format: functional
structure (smiles),measurement,setting,value
CO/N=C1/C(=O)N(CCn2cc(CN3CCC[C@H]4CN(c5c(F)cc6c(=O)c(C(=O)O)cn(C7CC7)c6c5OC)C[C@H]43)nn2)c2ccccc21,MIC,[1],0.1 µg/mL
same,Ratio,[2],256
same,Ratio,[3],>1024
CC1CN(c2c(F)c(N)c3c(=O)c(C(=O)O)cn(C4CC4)c3c2F)CC(C)N1CN1C(=O)C(=O)c2ccccc21 (stereo not given),IC50,HeLa,18.3 to 50 µg/mL
same,IC50,SW480,18.3 to 50 µg/mL
same,IC50,A549,18.3 to 50 µg/mL
same,IC50,HepG2,18.3 to 50 µg/mL
Cc1ccc2c(c1)C(=O)C(=O)N2CN1CCN(c2cc3c(cc2F)c(=O)c(C(=O)O)cn3C2CC2)CC1,MIC,Vibrio cholerae,0.1 to 0.5 µg/mL
same,MIC,Escherichia coli [4],0.1 to 0.5 µg/mL
same,MIC,Shigella flexneri,0.1 to 0.5 µg/mL
same,MIC,[5],0.1 to 0.5 µg/mL
same,MIC,Salmonella typhi,0.1 to 0.5 µg/mL
same,MIC,Staphylococcus aureus,0.1 to 0.5 µg/mL
same,MIC,Citrobacter freundii,0.1 to 0.5 µg/mL
same,MIC,Pseudomonas aeruginosa,0.1 to 0.5 µg/mL
same,MIC,Klebsiella pneumoniae,0.1 to 0.5 µg/mL
Cc1cc(C)nc(NS(=O)(=O)c2ccc(/N=C3\C(=O)N(CN4C(C)CN(c5c(F)c(N)c6c(=O)c(C(=O)O)cn(C7CC7)c6c5F)CC4C)c4ccccc43)cc2)n1 (stereo not given),IC50,HeLa,18.3 to 50 µg/mL
same,IC50,SW480,18.3 to 50 µg/mL
same,IC50,A549,18.3 to 50 µg/mL
same,IC50,HepG2,18.3 to 50 µg/mL
CCn1cc(C(=O)O)c(=O)c2cc(F)c(N3CCN(CN4C(=O)/C(=N\c5ccc(S(=O)(=O)Nc6ncccn6)cc5)c5ccccc54)CC3)cc21,LD50 at 168 h,[6],> 4000 mg/kg
same,ED50,Escherichia coli [7],1.25 mg/kg
same,Ratio,Escherichia coli [8],4.8
CCn1cc(C(=O)O)c(=O)c2cc(F)c(N3CCN(CN4C(=O)C(=O)c5cc(C)ccc54)C(C)C3)c(F)c21 (stereo not given),MIC,Vibrio cholerae,0.25 to 2.5 µg/mL
same,MIC,Escherichia coli [4],0.25 to 2.5 µg/mL
same,MIC,Shigella flexneri,0.25 to 2.5 µg/mL
same,MIC,[5],0.25 to 2.5 µg/mL
same,MIC,Salmonella typhi,0.25 to 2.5 µg/mL
same,MIC,Staphylococcus aureus,0.25 to 2.5 µg/mL
same,MIC,Citrobacter freundii,0.25 to 2.5 µg/mL
same,MIC,Pseudomonas aeruginosa,0.25 to 2.5 µg/mL
same,MIC,Klebsiella pneumoniae,0.25 to 2.5 µg/mL
CO/N=C1/C(=O)N(CCCN2CCN(c3c(F)cc4c(=O)c(C(=O)O)cn(C5CC5)c4c3OC)CC2C)c2ccc(F)cc21 (stereo not given),MIC,[1],0.25 µg/mL
same,Ratio,[2],2
same,Ratio,[9],2
CCn1cc(C(=O)O)c(=O)c2cc(F)c(N3CCN(CN4C(=O)/C(=N\NC(N)=S)c5cc(Cl)ccc54)CC3)cc21,EC50,[10],11.3 µg/mL
COc1c(N2CCN(CN3C(=O)/C(=N\c4ccc(S(=O)(=O)Nc5nc(C)cc(C)n5)cc4)c4cc(F)ccc43)C(C)C2)c(F)cc2c(=O)c(C(=O)O)cn(C3CC3)c12 (stereo not given),MIC,[11],1.22 µg/mL
same,Activity,[12],106%
same,EC50,"[12]; Human immunodeficiency virus 1, 3B, MT4",12.1 µg/mL
CC1CN(c2c(F)c(N)c3c(=O)c(C(=O)O)cn(C4CC4)c3c2F)CC(C)N1CN1C(=O)/C(=N\c2ccc(S(=O)(=O)Nc3ncccn3)cc2)c2ccccc21 (stereo not given),IC50,HeLa,18.3 to 50 µg/mL
same,IC50,SW480,18.3 to 50 µg/mL
same,IC50,A549,18.3 to 50 µg/mL
same,IC50,HepG2,18.3 to 50 µg/mL
CCn1cc(C(=O)O)c(=O)c2cc(F)c(N3CCNC(C)C3)c(F)c21 (stereo not given) [LOMEFLOXACIN],MIC,Vibrio cholerae,0.1 to 2.5 µg/mL
same,MIC,Escherichia coli [4],0.1 to 2.5 µg/mL
same,MIC,Shigella flexneri,0.1 to 2.5 µg/mL
same,MIC,[5],0.1 to 2.5 µg/mL
same,MIC,Salmonella typhi,0.1 to 2.5 µg/mL
same,MIC,Staphylococcus aureus,0.1 to 2.5 µg/mL
same,MIC,Citrobacter freundii,0.1 to 2.5 µg/mL
same,MIC,Pseudomonas aeruginosa,0.1 to 2.5 µg/mL
same,MIC,Klebsiella pneumoniae,0.1 to 2.5 µg/mL
COc1ncnc(NS(=O)(=O)c2ccc(/N=C3\C(=O)N(CN4C(C)CN(c5c(F)c(N)c6c(=O)c(C(=O)O)cn(C7CC7)c6c5F)CC4C)c4ccccc43)cc2)c1OC (stereo not given),IC50,HeLa,18.3 to 33.6 µg/mL
same,IC50,SW480,18.3 to 33.6 µg/mL
same,IC50,A549,18.3 to 33.6 µg/mL
same,IC50,HepG2,18.3 to 33.6 µg/mL
COc1cc(Cc2cnc(/N=C3\C(=O)N(CN4CCN(c5cc6c(cc5F)c(=O)c(C(=O)O)cn6C5CC5)CC4)c4ccc(F)cc43)nc2N)cc(OC)c1OC,MIC,[13],0.78 µg/mL
same,Activity,[14],4.08 log10CFU
same,Activity,[15],5.26 log10CFU
O=C(O)c1cn(C2CC2)c2cc(N3CCNCC3)c(F)cc2c1=O [CIPROFLOXACIN],MIC,Vibrio cholerae,0.1 to 2.5 µg/mL
same,MIC,Escherichia coli [4],0.1 to 2.5 µg/mL
same,MIC,[13],2 µg/mL
same,MIC,Shigella flexneri,0.1 to 2.5 µg/mL
same,MIC,[5],0.1 to 2.5 µg/mL
same,Activity,[14],4.64 log10CFU
same,MIC,Salmonella typhi,0.1 to 2.5 µg/mL
same,Activity,[15],6.82 log10CFU
same,MIC,Staphylococcus aureus,0.1 to 2.5 µg/mL
same,MIC,Citrobacter freundii,0.1 to 2.5 µg/mL
same,MIC,Pseudomonas aeruginosa,0.1 to 2.5 µg/mL
same,MIC,Klebsiella pneumoniae,0.1 to 2.5 µg/mL
COc1cc(Cc2cnc(/N=C3\C(=O)N(CN4C(C)CN(c5c(F)c(N)c6c(=O)c(C(=O)O)cn(C7CC7)c6c5F)CC4C)c4ccccc43)nc2N)cc(OC)c1OC (stereo not given),IC50,HeLa,18.3 to 50 µg/mL
same,IC50,SW480,18.3 to 50 µg/mL
same,IC50,A549,18.3 to 50 µg/mL
same,IC50,HepG2,18.3 to 50 µg/mL
CCn1cc(C(=O)O)c(=O)c2cc(F)c(N3CCN(CN4C(=O)C(=O)c5ccccc54)C(C)C3)c(F)c21 (stereo not given),MIC,Vibrio cholerae,0.25 to 2.5 µg/mL
same,MIC,Escherichia coli [4],0.25 to 2.5 µg/mL
same,MIC,Shigella flexneri,0.25 to 2.5 µg/mL
same,MIC,[5],0.25 to 2.5 µg/mL
same,MIC,Salmonella typhi,0.25 to 2.5 µg/mL
same,MIC,Staphylococcus aureus,0.25 to 2.5 µg/mL
same,MIC,Citrobacter freundii,0.25 to 2.5 µg/mL
same,MIC,Pseudomonas aeruginosa,0.25 to 2.5 µg/mL
same,MIC,Klebsiella pneumoniae,0.25 to 2.5 µg/mL
O=C1C(=O)N(CN2CCN(c3cc4c(cc3F)c(=O)c(C(=O)O)cn4C3CC3)CC2)c2ccccc21,MIC,Vibrio cholerae,0.1 to 0.5 µg/mL
same,MIC,Escherichia coli [4],0.1 to 0.5 µg/mL
same,MIC,Shigella flexneri,0.1 to 0.5 µg/mL
same,MIC,[5],0.1 to 0.5 µg/mL
same,MIC,Salmonella typhi,0.1 to 0.5 µg/mL
same,MIC,Staphylococcus aureus,0.1 to 0.5 µg/mL
same,MIC,Citrobacter freundii,0.1 to 0.5 µg/mL
same,MIC,Pseudomonas aeruginosa,0.1 to 0.5 µg/mL
same,MIC,Klebsiella pneumoniae,0.1 to 0.5 µg/mL
CCn1cc(C(=O)O)c(=O)c2cc(F)c(N3CCN(CN4C(=O)/C(=N\NC(N)=S)c5cc(Br)ccc54)CC3)cc21,EC50,[10],13.9 µg/mL
CCn1cc(C(=O)O)c(=O)c2cc(F)c(N3CCN(CN4C(=O)/C(=N\c5ncc(Cc6cc(OC)c(OC)c(OC)c6)c(N)n5)c5cc(Br)ccc54)CC3)cc21,ED50,Escherichia coli [7],1.62 mg/kg
same,Ratio,Escherichia coli [8],3.7
CO/N=C1/C(=O)N(CCn2cc(CN3CCC[C@H]4CN(c5c(F)cc6c(=O)c(C(=O)O)cn(C7CC7)c6c5OC)C[C@H]43)nn2)c2ccc(Br)cc21,MIC,[1],0.1 µg/mL
same,Ratio,[2],4
CCn1cc(C(=O)O)c(=O)c2cc(F)c(N3CCNCC3)cc21 [NORFLOXACIN],LD50 at 168 h,[6],4000 mg/kg
same,ED50,Escherichia coli [7],6 mg/kg
